# Paper PMC7091366 (Archives of Pharmacal Research, 2014)
# Entries after “also recorded” stand apart in the source; their conditions may differ.
# How the values were obtained:
# [1] = Cell viability; type: cell-based, baby hamster; details: hamster, BHK-21 cells, CC50, BHK-21 cells, MTT
# [2] = tested on: Japanese encephalitis virus (JEV) strain T1P1; test: JEV plaque reduction assay in BHK-21 cells; type: cell-based; details: JEV 100 pfu, BHK-21 monolayer, plaques after 3 days
# [3] = tested on: Japanese encephalitis virus (JEV); test: Quantitative assay of JEV yields by real-time RT-PCR; type: cell-based; details: for Ct (real-time RT-PCR of JEV RNA in supernatant) / ΔCt (Ct experimental − Ct control) / Reduction in virus RNA loads: 10 μg/ml; for Ct (real-time RT-PCR of JEV RNA in supernatant) / ΔCt (Ct experimental − Ct control): JEV MOI 1, BHK-21 cells, 72 h; for Reduction in virus RNA loads: supernatant of infected BHK-21 cells, three days post infection; for inhibition at 10 µg/mL: Japanese encephalitis virus, BHK-21, read-out: Inhibition of JEV yields
# [4] = tested on: GAS-driven promoter (pGAS-Luc) in BHK-21 cells; test: GAS-driven promoter dual-luciferase reporter assay; type: cell-based, baby hamster; details: 10 μg/ml, 4 h, versus untreated cells
# [5] = tested on: BHK-21 cells; test: Cell viability; type: cell-based, baby hamster; details: 72 h, MTT
Compound,CC50 at 72 h [1] [µg/mL],IC50 (JEV plaque reduction) [2] [µg/mL],Ct (real-time RT-PCR of JEV RNA in supernatant) [3],ΔCt (Ct experimental − Ct control) [3],Reduction in virus RNA loads [3],inhibition at 10 µg/mL [3] [%],Activity of GAS-driven promoter (relative firefly luciferase) ([4]; listed as aloe emodin),Activity of GAS-driven promoter (relative firefly luciferase) ([4]; listed as aloe-emodin),Activity of GAS-driven promoter (relative firefly luciferase) [4],CC50 [5] [µg/mL]
O=C1c2cccc(O)c2C(=O)c2c(O)cc(CO)cc21 [Aloe-emodin],20.2 ± 1.01,17.39 ± 0.58,32.25,6.72,more than 1 log,90,significantly activated,significantly increased,–,–
Cc1cc(O)c2c(c1)C(=O)c1cccc(O)c1C2=O [Chrysophanol],18.2 ± 5.53,15.82 ± 2.62,29.26,3.73,more than 1 log,90,–,–,significantly activated; also recorded: significantly increased,–
Cc1cc(O)c2c(c1)C(=O)c1cc(O)cc(O)c1C2=O [Emodin],–,–,–,–,–,–,–,–,–,5.49 ± 1.82
COc1cc(O)c2c(c1)C(=O)c1cc(C)cc(O)c1C2=O [Physcion],20.7 ± 4.66,–,–,–,–,–,–,–,–,–
